Measured values published in patent US11369657B2, “Small molecule polypeptide for preventing and restraining inflammation and application of same” (SHANGHAI FIRST PEOPLE'S HOSPITAL, priority 2011, dated 2022).
“Also recorded” adds a separate entry of the source. Peptide text beside a SMILES is read from it.

Assays:
RAW264.7 cells = assay: Cell viability assay (MTS); assay type: cell-based, mouse; conditions: RAW264.7 cells co-incubated 24 hours
Protocol: RAW264.7 cells were placed into a 96-well plate for 24-hour adherent culture, and then peptides with different concentrations were added into each well and co-cultured for another 24 hours, while no treatment was taken to the control group. 20 μl of MTS solution was added into each well after 24 hours and cultured for another 3 hours. The culture plate was taken to determine the absorbance of each well at 490 nm.
(§1) The experiment date was shown as x±s. A SPSS 11.0 statistical package was used for statistic analysis and a one-way ANOVA was used to compare RAW264.7 cell viability results, TNF-α and IL-6 level between the groups, and P<0.05 represents statistical significance.

IL-6 = IL-6 level in supernatant of LPS-stimulated RAW264.7 cells (ELISA); assay type: cell-based, mouse; conditions: 0.1-10 μM LS22 pretreatment 30 min, LPS 100 ng/mL 24 hours
Protocol: (§2) Mouse RAW264.7 cells were inoculated on the 24-well cell culture plate (400 μl/well). RAW264.7 was pretreated with 0.1-10 μM of LS22 for 30 min, and then LPS (100 ng/mL) was added and co-incubated for 24 hours. Cell supernatant in each well was collected and TNF-α and IL-6 level was determined by ELISA kits.
as §1
(§3) Derived Polypeptides were prepared as follows. Polypeptides were prepared according to the method in Example 1, and the inhibiting effect of the polypeptides on ocular inflammation was determined according to Examples 2-3.

[1] = Water solubility of the synthesized powder; assay type: physicochemical; conditions: white powder
Protocol: 7. 120 mg of polypeptide LS22 was obtained as white powder with good water solubility (purification >95%) and then sealed and stored for use at −20° C.

TNF-α = TNF-α level in supernatant of LPS-stimulated RAW264.7 cells (ELISA); assay type: cell-based, mouse; conditions: 0.1-10 μM LS22 pretreatment 30 min, LPS 100 ng/mL 24 hours
Protocol: as §2, §1, §3

uveitis in rats = assay: LPS-induced uveitis in rats, intravitreal injection of polypeptide; assay type: in vivo, rat; conditions: for protein concentration in rat aqueous humor / exuded cells count in rat anterior chamber / aqueous humor: 24 hours after LPS injection, vs LPS+PBS group; for protein concentration in rat aqueous humor: BCA method, LS22 intravitreally; for exuded cells count in rat anterior chamber / aqueous humor: LS22 10, 50 or 100 μg intravitreally
Protocol: 8-week old male wistar rats were randomly divided into 5 groups with 10 rats for each, which are blank+PBS, LPS+PBS group, LPS+LS22 10 μg group, LPS+LS22 50 μg group, LPS+LS 22 100 μg group. 0.15 ml of pentobarbital (5.47 g/100 ml normal saline) was intraperitoneally injected into the rats for anesthesia. 100 μl of LPS (2 μg/μl) was subcutaneously injected into the right hindpaw of rats both in treating group and positive control group. An equal volume of normal saline was injected into the same position of the rats in blank+PBS group. 5% tropicamide and 1% tetracaine was dropped on the eye for mydriasis and local anesthesia. Under operating microscope, 10 μl of polypeptide or PBS of equal volume was intravitreally injected of bilateral eyes. The pars plana was vertically punctured by a 29-gauge microsyringe at 1 mm from corneal limbus and the vitreous cavity was reached. The drug liquid was then injected into the center of the vitreous cavity under direct vision and the needle was pulled out quickly after remaining for a few seconds. All above steps were conducted aseptically.
24 hours after LPS was injected, 6 rats in each experimental group were subjected to anterior chamber puncture by 30 G needle under deep anesthesia, and then bilateral aqueous humor was collected. Other 4 rats were sacrificed by cervical dislocation and the eyeballs were taken and immobilized.
The aqueous humor sample was diluted to 1:5 by trypan blue and then added into hemocytometer for manual counting under optical microscope, and total protein concentration was determined by BCA method.
The eyeballs were taken and immobilized by neutral formaldehyde (10%) and stored at 4° C. The sample was embedded into paraffin, cut into sagittal slices with the thickness of 5 μm, and then subjected to HE staining. The iris and ciliary body, anterior chamber, vitreous body and retina of the eyeballs were observed under optical microscope. The exuded cells in anterior chamber and vitreous cavity were counted by the same pathologist.
The experiment date was shown as x±s. A one-way ANOVA was used to compare the exuded cells and total protein concentration between these groups, and P<0.05 represents statistical significance.

ocular inflammation = assay: Inhibiting effect of derived polypeptides on ocular inflammation according to Examples 2-3
Protocol: as §3

Row | Compound | toxicity to the cells (RAW264.7 cells) | cell viability compared with the control group (RAW264.7 cells; MTS) | LPS-induced IL-6 level in cell supernatant (IL-6) | water solubility [1] | LPS-induced TNF-α level in cell supernatant (TNF-α) | protein concentration in rat aqueous humor (uveitis in rats) | protein concentration in rat aqueous humor (uveitis in rats; listed as LSS) | exuded cells count in rat anterior chamber / aqueous humor (uveitis in rats) | exuded cells count in rat anterior chamber / aqueous humor (uveitis in rats; listed as LSS) | inflammatory cells in tissues (histopathologic examination) (uveitis in rats; HE staining, anterior chamber, ciliary body, posterior vitreous cavity, after LPS injection) | inhibition of uveitis (uveitis in rats; rats, LPS-induced) | anti-inflammation effect (ocular inflammation; derived polypeptides, 10 μg group or 10 μM) | anti-inflammation effect compared with LS22 (ocular inflammation; weaker than LS22)
1 | CC[C@H](C)[C@H](NC(=O)[C@H](CO)NC(=O)[C@H](CC(N)=O)NC(=O)[C@H](Cc1c[nH]cn1)NC(=O)[C@H](CO)NC(=O)[C@H](CC(C)C)NC(=O)[C@H](CC(=O)O)NC(=O)[C@@H](N)CC(C)C)C(=O)N[C@@H](CO)C(=O)N[C@@H](CCC(N)=O)C(=O)N[C@@H](CCC(=O)O)C(=O)N[C@@H](CO)C(=O)N[C@@H](C)C(=O)N[C@@H](CC(C)C)C(=O)N[C@@H](Cc1ccc(O)cc1)C(=O)N[C@@H](CC(C)C)C(=O)N[C@@H](CC(C)C)C(=O)N[C@@H](CCC(=O)O)C(=O)N[C@H](C(=O)N[C@@H](CC(C)C)C(=O)N1CCC[C@H]1C(=O)N[C@@H](CO)C(=O)O)[C@@H](C)O [LS22] (H-LDLSHNSISQESALYLLETLPS-OH; N-terminus assumed) | no toxicity was observed | no statistically significant difference | significantly inhibited; also recorded: remarkably inhibited | good | significantly inhibited; also recorded: remarkably inhibited | remarkably decreased | significantly reduced | remarkably reduced | significantly reduced | greatly reduced; also recorded: significantly reduced | significantly inhibited uveitis | – | –
2 | Polypeptide 7: sequence as set forth by SEQ ID NO.: 5 (ALQSLNLSENGLSLDAVLGLV) | – | – | – | – | – | – | – | – | – | – | – | exhibits an anti-inflammation effect to some extent | about 30%
